Where “and” joins values, the source holds several entries; their conditions need not be identical. Equal entries are not always repeated. Entries after “also recorded” stand apart in the source; their conditions may differ.
Tests used:
[1] = test system: Bacillus subtilis subsp. spizizenii; experiment: Toxicity screen, serial dilution-spot test; type: cell-based; details: gram positive; 24 h exposure in DI water, 28 °C; 0.0001 = no colonies at 0.001 mM;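 also: last dilution that did not fully inhibit growth with colonies still present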
Description: (§1) An estimation of the toxicity of 4-(N-alkylpyridinium)-1,4-DHP derivatives 3, 6, 7, and 9–11 was performed using six prokaryotic (bacteria) and one eukaryotic (yeast) microorganism species according to the procedure elaborated by Suppi et al.. The microorganisms used in the study and their origin were: Bacillus subtilis subsp. spizizenii (ATCC® 6633™*, Microbiologics®, St Cloud, MN, USA), Escherichia coli (ATCC® 8739, Microbiologics®), Klebsiella pneumoniae (Latvian Microorganisms strain collection, LMKK, strain number 535, Riga, Latvia), Micrococcus luteus (LMKK, No. 25), Pseudomonas aeruginosa (NCTC 12924, Biosciences Ltd., Dublin, Ireland), Proteus mirabilis (LMKK, No 590), and Saccharomyces cerevisiae, CEN.PK2 strain [32].
(§2) Bacteria and yeast cultures were cultivated until their exponential growth phase (optical density max 1); then, 100 µL of cell suspension was taken, washed in deionised (DI) water, and added to serially diluted samples of corresponding 4-(N-alkylpyridinium)-1,4-DHPs in DI water. All 1,4-DHPs were tested in five serially diluted concentrations (10 mM, 1 mM, 0.1 mM, 0.01 mM, and 0.001 mM). Test organisms were exposed to 1,4-DHP derivatives in DI water on 96-well microplates (Corning, Corning, NY, USA) at 28 °C for 24 h without shaking in the dark. Then, a 5 µL sample was taken from each well and spotted on yeast extract, bactopeptone, dextrose broth (YPD) (yeast extract 1%, bactopeptone 2%, glucose 2% and agar 2%) plates to test the growth of yeasts and lysogeny broth (LB) (yeast extract 0.5%, bactopeptone 1%, NaCl 0.5% and agar 2%) to test the growth for bacteria. Plates were left in 30 °C for 24 h, and assessed for microbial growth.
(§3) If there were no colonies after incubation with 1,4-DHPs in the last concentration of (0.001 mM), then their boundary concentration was set to 0.0001 mM or 0.1 µM.

[2] = test system: Escherichia coli; experiment: Toxicity screen, serial dilution-spot test; type: cell-based; details: gram negative; 24 h exposure in DI water, 28 °C; 0.0001 = no colonies at 0.001 mM;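 also: last dilution that did not fully inhibit growth with colonies still present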
Description: as §1, §2, §3

[3] = test system: Klebsiella pneumoniae; experiment: Toxicity screen, serial dilution-spot test; type: cell-based; details: gram negative; 24 h exposure in DI water, 28 °C; 0.0001 = no colonies at 0.001 mM;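 also: last dilution that did not fully inhibit growth with colonies still present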
Description: as §1, §2, §3

[4] = test system: Micrococcus luteus; experiment: Toxicity screen, serial dilution-spot test; type: cell-based; details: gram positive; 24 h exposure in DI water, 28 °C; 0.0001 = no colonies at 0.001 mM;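 also: last dilution that did not fully inhibit growth with colonies still present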
Description: as §1, §2, §3

[5] = test system: Proteus mirabilis; experiment: Toxicity screen, serial dilution-spot test; type: cell-based; details: gram negative; 24 h exposure in DI water, 28 °C; 0.0001 = no colonies at 0.001 mM;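 also: last dilution that did not fully inhibit growth with colonies still present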
Description: as §1, §2, §3

[6] = test system: Pseudomonas aeruginosa; experiment: Toxicity screen, serial dilution-spot test; type: cell-based; details: gram negative; 24 h exposure in DI water, 28 °C; 0.0001 = no colonies at 0.001 mM;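 also: last dilution that did not fully inhibit growth with colonies still present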
Description: as §1, §2, §3

[7] = test system: Saccharomyces cerevisiae, CEN.PK2 strain; experiment: Toxicity screen, serial dilution-spot test; type: cell-based; details: yeast; 24 h exposure in DI water, 28 °C; 0.0001 = no colonies at 0.001 mM;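 also: last dilution that did not fully inhibit growth with colonies still present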
Description: as §1, §2, §3

[8] = test system: six prokaryotic (bacteria) and one eukaryotic (yeast) microorganism species; experiment: Toxicity screen, whole panel of microorganisms; type: cell-based; details: concentrations tested 10 to 0.001 mM
Description: as §1, §2, §3

[9] = Self-assembling properties by dynamic light scattering (DLS); type: physicochemical
Description: Samples of compounds for dynamic light scattering (DLS) studies were prepared by thin-film hydration method in an aqueous solution at a concentration of 0.5 mg/mL for compounds 1–7, 0.25 mg/mL for compounds 8–10, and 0.1 mg/mL for compound 11. A corresponding amount of compounds was weighted in a round-bottom flask and dissolved in chloroform; then, the organic solvent was removed in vacuo, and the residue was dried in high vacuo for 1 h. An appropriate amount of deionised water was added to each flask for the preparation of stock solutions with the above-mentioned concentrations. Samples were prepared by sonication using a bath-type sonicator (Cole Parmer Ultrasonic Cleaner 8891CPX (Vernon Hills, IL, USA)). Samples were sonicated for 60 min at 50 °C.
The DLS measurements of the nanoparticles in an aqueous solution were carried out on a Zetasizer Nano ZSP (Malvern Panalytical Ltd., Malvern, UK) instrument with Malvern Instruments Ltd. Software 7.12, using the following specifications—medium: water; refractive index: 1.33; viscosity: 0.8872 cP; temperature: 25 °C; dielectric constant: 78.5; nanoparticles: liposomes; refractive index of materials: 1.60; detection angle: 173°; wavelength: 633 nm. Data were analysed using the multimodal number distribution software that was included with the instrument. The measurements were performed in triplicate in order to check their reproducibility.

[10] = Determination of critical aggregation concentration (CAC) by DLS; type: physicochemical; details: aqueous media
Description: The critical aggregation concentrations (CAC) of 4-(N-alkylpyridinium)-1,4-DHP derivatives were determined in aqueous media using a Zetasizer Nano S90 (Malvern Panalytical Ltd., Malvern, UK) instrument with Malvern Instruments Ltd. Software according to procedure described by Topel et al. and modified by our group. Briefly, as stock solutions of tested compounds were used, samples were prepared for self-assembling experiments. All of the subsequent samples were prepared starting from the concentrated stock solution, which was subjected to a serial two-fold dilution each time with water. The intensity values of scattered light (kcps) as a function of concentration of amphiphiles were analysed. The scattering intensities detected for amphiphile concentrations below CAC have an approximately constant value corresponding to water. The intensity starts to show a linear increase with concentration at the CAC, since the amount of nanoparticles increases in the solution. The intersection of the best-fit lines drawn through the data points is the preliminary CAC value of the compounds.

[11] = parameters: method as in PMID 9713710; details: cited from earlier work
[12] = test system: human erythrocytes; parameters: method as in PMID 9713710; details: cited from earlier work

SMILES: CCCCCCCCCCCCCCCC[n+]1cccc(C2C(C(=O)OCC)=C(C)NC(C)=C2C(=O)OCC)c1 [Compound 10]
- Boundary concentration, B. subtilis [1]: 0.0001 mM
- Boundary concentration, E. coli [2]: 0.01 mM
- Boundary concentration, K. pneumoniae [3]: 0.01 mM
- Boundary concentration, M. luteus [4]: 0.001 mM
- Boundary concentration, P. mirabilis [5]: 0.01 mM
- Boundary concentration, P. aeruginosa [6]: 10 mM
- Boundary concentration, S. cerevisiae [7]: 0.0001 mM
- Effect on survival of microorganisms [8]: toxic at various degrees
- PDI ± SD, 1 Set ([9]; freshly prepared samples): 0.10 and 0.10 ± 0.06
- Zeta-Pot ± SD ([9]; freshly prepared samples in water, 0.5 mg/mL (1–7), 0.25 mg/mL (8–10), 0.1 mg/mL (11)): +49.70 ± 7.94 mV
- PDI ± SD, 2 Set ([9]; two weeks after the first set, samples stored at r.t.): 0.25 and 0.25 ± 0.05
- Stability of nanoparticles ([9]; two weeks of storage at r.t., DLS): stable after two weeks of storage; also recorded: confirmed the stability of nanoparticles
- CAC [10]: 28.2 µM
- Release of calcein from DPPC liposomes [11]: remarkable release of calcein from DPPC liposomes
- Hemolysis of human erythrocytes [12]: induced the hemolysis of human erythrocytes

From publication PMC6470589, “Contribution of Molecular Structure to Self-Assembling and Biological Properties of Bifunctional Lipid-Like 4-(N-Alkylpyridinium)-1,4-Dihydropyridines” (Pharmaceutics, 2019)
